In patent publication US20230295234A1, “ANTIMICROBIAL PEPTIDOMIMETICS” (SPEXIS AG, priority 2020, published 2023):
Peptide text beside a SMILES is read from it.

Columns and labels:
[1] = system: human red blood cells (hRBC); assay: Hemolysis of human red blood cells; type: cell-based; conditions: red cells of human, 1 h
In short: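 Percent hemolysis is OD540 of peptide-treated supernatant relative to water-lysed cells. Each peptide was tested at 200 μg/mL against 20% (v/v) washed human erythrocytes. Incubation was 1 h at 37 °C, 300 rpm.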

[2] = system: Escherichia coli ATCC 25922; conditions: ATCC 25922
In short: (§1)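 First, bacterial colonies are suspended in saline and adjusted to 0.5 McFarland. Next, the suspension is diluted into cation-adjusted Mueller-Hinton II broth (approx. 5×10^5 CFU/mL). Finally, it is added to two-fold serially diluted peptide, with polysorbate 80 at 0.002% final.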

[3] = system: Klebsiella pneumoniae SSI3010; conditions: SSI3010
In short: as §1

[4] = system: Escherichia coli MCR-1 Af 45; conditions: Mueller-Hinton broth II, 18-20 hours at 35° C.
In short: as §1

**Q.** Which results are given for CC[C@H](C)[C@H](NC(=O)[C@@H](NC(=O)[C@@H]1C[C@@H](O)CN1C(=O)[C@@H](N)C(C)C)[C@@H](C)CC)C(=O)N[C@@H](Cc1ccc(O)cc1)C(=O)N[C@H]1CC(=O)NCC[C@@H](C(=O)N[C@@H](CCN)C(=O)N[C@@H](CCCNC(=N)N)C(=O)N[C@@H](Cc2ccc(O)cc2)C(=O)O)NC(=O)[C@H](CCCCN)NC(=O)[C@@H](CCN)NC(=O)[C@H]([C@@H](C)O)NC(=O)[C@H](CCN)NC(=O)[C@H](CCCNC(=N)N)NC(=O)[C@H](CC(N)=O)NC1=O [Example 205] (HELM PEPTIDE1{V.[Hyp].I.I.Y.D.N.R.[Dab].T.[NCC[C@@H](N[*:1])C(=O)[*:2]].K.[Dab].[Dab].R.Y}$PEPTIDE1,PEPTIDE1,6:R3-13:R3$$$V2.0)?
**A.** Hemolysis at 0.2 g/L [1]: 0%; Escherichia coli ATCC 25922 MIC [2]: 0.125 µg/mL; Klebsiella pneumoniae SSI3010 MIC [3]: 0.25 µg/mL; Escherichia coli MCR-1 Af 45 MIC [4]: 0.125 µg/mL
